Test results reported in PMC3548977 (Cancer cell, 2013).

How the values were obtained:
Gli1 mRNA [1] = assay: Gli1 mRNA expression in treated SMO^WT MB allografts; format: in vivo, mouse; conditions: treated 3 days, harvested 4 h after last dose
SMO^WT = SMO^WT (Mus musculus, UniProt P56726); assay: 8×-GLI-luciferase reporter in SHHN stimulated Smo−/− MEFs expressing SMO^WT; format: cell-based
Gli1 mRNA [2] = assay: Gli1 mRNA transcription in MB tumorspheres; format: cell-based; conditions: Mus musculus, 24 h, read-out: IC50 for Gli1 mRNA transcription
P-glycoprotein (PGP) = conditions: ref Wang et al., 2002; cited from earlier work
murine SMO^E522K = murine SMO^E522K (Mus musculus, UniProt P56726, E522K); assay: 8×-GLI-luciferase reporter in SHHN stimulated Smo−/− MEFs expressing SMO^E522K; conditions: GDC-0449 0.5 μM, itraconazole 1.5 μM
[3] = tested on: Ptch^+/−; p53^−/− mouse MB allograft (SMO^WT); format: in vivo; conditions: day 9 of treatment; ATO 7.5 mg/kg IP qd, itraconazole 75 mg/kg PO bid
[4] = tested on: Ptch^+/−; p53^−/− MB tumorspheres expressing endogenous SMO^WT; assay: MB tumorsphere proliferation; format: cell-based; conditions: Mus musculus, 96 h, read-out: IC50 anti-proliferative activity
[5] = tested on: NVP-LDE225 resistant SMO mutants; format: cell-based, mouse; conditions: itraconazole 1.5 μM, mutant of Figure 7D

SMO^WT, sequence (P56726 33-793): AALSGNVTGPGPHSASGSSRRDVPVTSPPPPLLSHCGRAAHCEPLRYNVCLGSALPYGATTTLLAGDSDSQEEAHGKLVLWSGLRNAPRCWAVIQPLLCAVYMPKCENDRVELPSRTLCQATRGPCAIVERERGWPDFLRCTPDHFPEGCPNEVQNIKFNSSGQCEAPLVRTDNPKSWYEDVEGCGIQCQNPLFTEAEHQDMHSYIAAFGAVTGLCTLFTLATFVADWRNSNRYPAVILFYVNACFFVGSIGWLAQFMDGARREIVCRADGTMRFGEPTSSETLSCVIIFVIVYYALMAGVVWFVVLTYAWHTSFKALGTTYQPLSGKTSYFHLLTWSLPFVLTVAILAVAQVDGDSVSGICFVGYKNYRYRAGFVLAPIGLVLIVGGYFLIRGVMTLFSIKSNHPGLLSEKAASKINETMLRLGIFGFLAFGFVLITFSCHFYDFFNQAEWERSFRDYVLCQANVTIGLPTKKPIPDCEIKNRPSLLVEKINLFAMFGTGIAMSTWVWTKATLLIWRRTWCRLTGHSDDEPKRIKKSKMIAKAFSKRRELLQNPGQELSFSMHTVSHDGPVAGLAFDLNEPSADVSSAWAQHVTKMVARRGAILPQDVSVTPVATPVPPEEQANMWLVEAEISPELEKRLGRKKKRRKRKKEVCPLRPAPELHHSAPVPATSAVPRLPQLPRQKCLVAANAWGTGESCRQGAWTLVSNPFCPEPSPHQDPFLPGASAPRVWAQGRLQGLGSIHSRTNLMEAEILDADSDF
murine SMO^E522K, sequence (P56726 33-793 E522K): as the sequence (P56726 33-793) above, with E490K counted along it

CCC(C)n1ncn(-c2ccc(N3CCN(c4ccc(OCC5COC(Cn6cncn6)(c6ccc(Cl)cc6Cl)O5)cc4)CC3)cc2)c1=O (stereo not drawn) [itraconazole]
Inhibition of tumor Gli1 mRNA expression compared to vehicle-treated tumors (Gli1 mRNA [1]): 55%
IC50 (SMO^WT): ~600 nM
Inhibition of relative Hh pathway activity (8×-GLI-luciferase reporter) (SMO^WT; SHHN stimulated Smo−/− MEFs expressing SMO^WT): full antagonist
IC50 (Gli1 mRNA [2]): ~100 nM
Inhibition of PGP (P-glycoprotein (PGP)): potent inhibitor
Inhibition of SMO^E522K activity (murine SMO^E522K): almost completely inhibited
Tumor growth inhibition compared to vehicle-treated tumors [3]: 96%
IC50 [4]: 55 nM
Inhibition of mutant activity [5]: ~ 60%
